Laboratory results: US9234222B2, “Microbial strains producing sphingoid bases or derivatives thereof” (EVONIK DEGUSSA GMBH, priority 2004, dated 2016)
Bridge positions count the residues as written; N and C are the ends. Square brackets hold non-standard residues; d marks the D form. Peptide text beside a SMILES is read from it. * marks the point of attachment. Asp(3S-OH) = N[C@H](C(=O)O)[C@H](O)C(=O)O; Thr(4-Cl) = N[C@H](C(=O)O)[C@H](O)CCl; X1 = CCCCCCCCC[C@@H](O)CC(=O)*; dDab = NCC[C@@H](N)C(=O)O; Dab = NCC[C@H](N)C(=O)O; Dhb = C/C=C(\N)C(=O)O

Tested on: Pichia ciferrii strains
Assay: Minimal inhibitory concentration of SyringomycinE on YEPD agar plates
Format: cell-based
Settings: 10 μg/ml in YEPD selective plates
Method: In order to isolate high sphinganine producing Pichia ciferrii strains the following procedure was followed. First, the natural sensitivity of Pichia ciferrii strains for the toxic compound SyringomycinE, produced by […] syringae (Gross D C, 1985, Regulation of syringomycin synthesis in Pseudomonas syringae pv. syringae and defined conditions for its production. J Appl Bacteriol. 58:167-174), was determined by adding different concentrations of SyringomycinE to agar plates. A stock solution of 3.5 mg SyringomycinE (obtained from J. Takemoto, Utah State University) was prepared by dissolving it in 1.0 ml 0.001 N HCl. The pH was kept below 7 for stability and stored at −20° C. The minimal inhibitory concentration (=MIC-value) for Pichia ciferrii strains was determined by using YEPD plates (per liter: Yeast Extract, 10 g; Pepton, 20 g; Glucose, 20 g; Agar, 20 g) containing various concentrations between 0.1 and 20 μg/ml syringomycinE. On each plate with the different concentrations of syringomycinE 100 μl of a freshly grown culture (OD600 nm=0.4) was plated and incubated at 30° C. for 5 days.
Depending on the strain no colonies appeared on plates with 2 to 10 μg/ml of SyringomycinE, meaning that the MIC value lies between 2 and 10 μg/ml. […]

## C/C=C1\NC(=O)[C@H](Cc2ccccc2)NC(=O)[C@H](CCCN=C(N)N)NC(=O)[C@@H](CCN)NC(=O)[C@H](CCN)NC(=O)[C@@H](CO)NC(=O)[C@@H](NC(=O)C[C@H](O)CCCCCCCCC)COC(=O)[C@H]([C@H](O)CCl)NC(=O)[C@H]([C@H](O)C(=O)O)NC1=O [SyringomycinE] (X1-S[dS][Dab][dDab]RF[Dhb][Asp(3S-OH)][Thr(4-Cl)]; ester 1-C)
  effect on standard P. ciferrii strains: lethal
